Results taken from PubChem BioAssay (NCI).
Where “and” joins values, the source holds several entries; their conditions need not be identical. Equal values may be shown once.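 These data come from cells grown in 96-well plates and exposed to compound for 48 hours at five concentrations. GI50 marks 50% less growth. TGI: total growth inhibition.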

Assays:
Assay in all cases: NCI-60 cell line screen, 48 h
[1] = tested on: NCI-H522 lung
[2] = tested on: SK-MEL-5 melanoma
[3] = tested on: OVCAR-5 ovarian
[4] = tested on: DLD-1 colon
[5] = tested on: SK-MEL-28 melanoma
[6] = tested on: SF-539 CNS
[7] = tested on: TK-10 renal
[8] = tested on: HCT-15 colon
[9] = tested on: MDA-MB-231 breast

O=C(NC1C2CC3CC(C2)CC1C3)c1cc(/C=C/c2ccccc2)[nH]c(=S)n1 (centres undefined)
TGI [1]: > 100 µM
TGI [2]: > 100 µM
TGI [3]: > 100 µM
TGI [4]: > 100 µM
TGI [5]: > 100 µM
TGI [6]: > 100 µM
TGI [7]: > 100 µM

O=C1CC(O)(c2ccccc2)C(c2ccccc2)=C1c1ccccc1 (centres undefined)
TGI [1]: 54.1 µM
TGI [2]: 86.7 µM
TGI [3]: > 100 µM
TGI [4]: > 100 µM
TGI [5]: > 100 µM
TGI [8]: > 100 µM
TGI [7]: > 100 µM

CCOc1ccccc1NC(=O)CCc1n[nH]c(=S)o1
TGI [1]: > 100 µM
TGI [2]: > 100 µM
TGI [4]: > 100 µM
TGI [5]: > 100 µM
TGI [6]: > 100 µM
TGI [7]: > 100 µM

c1ccc2c(c1)[nH]c1c2nc2ncccn21
TGI [1]: > 100 µM
TGI [2]: > 100 µM
TGI [3]: > 100 µM
TGI [4]: > 100 µM
TGI [5]: > 100 µM
TGI [6]: > 100 µM
TGI [7]: > 100 µM

CC(=O)[C@@]1(O)[C@H](C)C[C@H]2[C@@H]3C=C(C)C4=Cc5c(cnn5-c5ccccc5)C[C@]4(C)[C@H]3[C@@H](O)C[C@@]21C
GI50 [1]: 2830 nM
TGI [1]: 8.85 µM
GI50 [2]: 1.61 µM
TGI [2]: 4.21 µM
GI50 [3]: 1.52 µM
TGI [3]: 5.76 µM
GI50 [5]: 3.22 µM
TGI [5]: 13 µM
GI50 [8]: 0.81 µM
TGI [8]: 2.66 µM
GI50 [6]: 1.22 µM
TGI [6]: 2.85 µM
GI50 [7]: 1.97 µM
TGI [7]: 6.08 µM
GI50 [9]: 2.04 µM
TGI [9]: 5.4 µM

CC(=O)Oc1cc2c(OC(C)=O)c(-c3c(C)cc4c(C(C)C)c(OC(C)=O)c(OC(C)=O)cc4c3OC(C)=O)c(C)cc2c(C(C)C)c1OC(C)=O
GI50 [1]: 5150 nM and 1520 nM and 5490 nM
TGI [1]: 10.5 µM and 3.23 µM and 11.5 µM
GI50 [2]: 17.4 µM and 4.66 µM and 7.79 µM
TGI [2]: 33.2 µM and 9 µM and 17 µM
GI50 [3]: 5.86 µM and 5.87 µM and 9.81 µM
TGI [3]: 13.6 µM and 12.9 µM and 25 µM
GI50 [5]: 5.12 µM and 15.3 µM and 18.8 µM
TGI [5]: 12.4 µM and 35.1 µM and 41.1 µM
GI50 [8]: 4.94 µM and 5.21 µM and 7.97 µM
TGI [8]: 9.98 µM and 10.5 µM and 18.2 µM
GI50 [6]: 6.52 µM and 5.37 µM and 12.5 µM
TGI [6]: 12.5 µM and 10.5 µM and 31.3 µM
GI50 [7]: 7.37 µM and 5.6 µM and 16.2 µM
TGI [7]: 21.9 µM and 17.4 µM and > 42.8 µM
GI50 [9]: 0.67 µM and 1.58 µM and 3.63 µM
TGI [9]: 2.08 µM and 7.6 µM and 12.4 µM

NC1=NCCN1CC(=O)O
TGI [1]: > 10000 µM
GI50 [2]: > 10000 µM
TGI [2]: > 10000 µM
GI50 [3]: > 10000 µM
TGI [3]: > 10000 µM
GI50 [5]: > 10000 µM
TGI [5]: > 10000 µM
GI50 [8]: > 10000 µM
TGI [8]: > 10000 µM
TGI [6]: > 1000 µM
GI50 [7]: > 10000 µM
TGI [7]: > 10000 µM
GI50 [9]: > 10000 µM
TGI [9]: > 10000 µM

O=S(=O)(Nc1cc(Cl)ccc1Cl)c1ccc(-c2cnc(C3CC3)o2)cc1
GI50 [1]: 1750 nM
TGI [1]: 39.2 µM
GI50 [2]: 3.36 µM
TGI [2]: 21.8 µM
GI50 [3]: 3.39 µM
TGI [3]: > 100 µM
GI50 [5]: 6.21 µM
TGI [5]: 82.8 µM
GI50 [8]: 0.608 µM
TGI [8]: > 100 µM
GI50 [6]: 1.24 µM
TGI [6]: 10.2 µM
GI50 [7]: 13.6 µM
TGI [7]: > 100 µM
GI50 [9]: 4.31 µM
TGI [9]: 43 µM

CC[C@@]1(O)C(=O)OCc2c1cc1n(c2=O)Cc2c-1nc1cc3c(cc1c2C)OCO3
GI50 [1]: 0.159 nM
GI50 [2]: < 0.0001 µM
TGI [2]: 0.0559 µM
GI50 [3]: 0.0694 µM
TGI [3]: 0.0379 µM
GI50 [5]: 0.0395 µM and 0.0765 µM
TGI [5]: > 100 µM
GI50 [8]: 0.00936 µM
TGI [8]: > 100 µM
GI50 [6]: < 0.0001 µM
TGI [6]: 0.000149 µM
GI50 [7]: 0.043 µM and 0.0311 µM
TGI [7]: 3.56 µM
GI50 [9]: 0.0147 µM
TGI [9]: > 100 µM
